Data: US11130793B2, “GLP-1/GLP-2 dual agonists” (Zealand Pharma A/S, priority 2016, dated 2021)
Read-outs that look alike come from different tables or passages of the source. Square brackets hold non-standard residues; d marks the D form. Peptide text beside a SMILES is read from it. Aib = CC(C)(N)C(=O)O

What was measured:
human GLP-1 receptor = biological target: T1, human GLP-1 receptor (Homo sapiens, UniProt P43220); test: GLP-1 receptor potency assay (cAMP AlphaScreen, HEK293 cells stably expressing GLP-1R); assay type: cell-based
T1 construct: expressed in transfected cells
T1 sequence (P43220 24-463): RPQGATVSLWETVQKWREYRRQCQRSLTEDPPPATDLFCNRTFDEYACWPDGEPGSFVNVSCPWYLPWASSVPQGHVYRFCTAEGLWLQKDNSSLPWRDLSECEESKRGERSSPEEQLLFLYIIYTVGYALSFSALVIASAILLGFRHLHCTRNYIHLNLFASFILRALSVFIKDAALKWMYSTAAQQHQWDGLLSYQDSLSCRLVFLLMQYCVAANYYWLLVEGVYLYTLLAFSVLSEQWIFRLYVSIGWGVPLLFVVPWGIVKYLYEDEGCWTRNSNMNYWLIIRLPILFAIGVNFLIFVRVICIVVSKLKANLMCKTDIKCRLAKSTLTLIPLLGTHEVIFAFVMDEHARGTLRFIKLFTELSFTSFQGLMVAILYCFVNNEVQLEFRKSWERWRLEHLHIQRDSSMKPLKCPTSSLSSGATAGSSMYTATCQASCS
Procedure, shortened: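 A HEK293 clone stably expressing cloned human GLP-1R (G418-selected) was stimulated with compound. Intracellular cAMP was measured by AlphaScreen. Responses were normalized to positive and vehicle controls, and EC50 and maximal response were fitted by 4-parameter logistic regression.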

human GLP-2 receptor [1] = biological target: T2, human GLP-2 receptor (Homo sapiens, UniProt O95838); test: GLP-2 receptor potency assay (cAMP AlphaScreen, HEK293 cells stably expressing GLP-2R); assay type: cell-based
T2 sequence (O95838 1-553 D470N): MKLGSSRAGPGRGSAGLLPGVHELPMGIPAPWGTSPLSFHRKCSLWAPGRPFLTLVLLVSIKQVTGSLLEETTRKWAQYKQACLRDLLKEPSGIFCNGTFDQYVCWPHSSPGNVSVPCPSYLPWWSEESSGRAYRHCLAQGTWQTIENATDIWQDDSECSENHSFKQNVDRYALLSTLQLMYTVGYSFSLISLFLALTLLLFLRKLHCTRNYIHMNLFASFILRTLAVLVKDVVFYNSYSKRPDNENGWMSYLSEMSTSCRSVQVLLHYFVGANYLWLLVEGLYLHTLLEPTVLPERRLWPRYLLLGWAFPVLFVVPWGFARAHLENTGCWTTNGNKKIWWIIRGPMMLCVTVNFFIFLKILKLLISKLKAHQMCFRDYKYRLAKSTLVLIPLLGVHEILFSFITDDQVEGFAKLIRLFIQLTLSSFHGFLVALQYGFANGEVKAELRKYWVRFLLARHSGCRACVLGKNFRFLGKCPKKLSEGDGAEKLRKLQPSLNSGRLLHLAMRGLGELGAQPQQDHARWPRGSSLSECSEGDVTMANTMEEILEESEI
Procedure, shortened: (§1)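 HEK293 cells stably expressing human GLP-2R (G418-selected clone); intracellular cAMP measured by AlphaScreen. Responses normalized to positive and vehicle controls; EC50 and maximal response from 4-parameter logistic fit.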

[2] = Chemical stability, RP-HPLC main peak area-% after incubation at 40° C.; assay type: physicochemical; settings: pH 7, 40° C., 14 day incubation, 0.2 mg/ml, normalized purity
Method: Samples of each test peptide were dissolved in MilliQ™ water, and the pH of the solution was adjusted to pH 6, 7, 7.5 or 9 using either HCl or NaOH. The final peptide concentration was 0.2 mg/ml. Samples were placed in glass vials and incubated at 40° C. The samples were analyzed by RP-HPLC on a C18 column with gradient elution using an acetonitrile/TFA/water eluent system. The area-percentage (area-%) of the main peak after incubation time T=t (relative to time T=0) was determined by UV spectroscopy at 220 nm.
The purity was first determined as follows: Purity (area-%)=(area of main peak/total area of all peaks)×100.
The purity was then normalized between time points by setting purity at time 0 (T=0) to 100 for each pH value for a given peptide, as follows: Normalised area-% at time t (T=t)=[area-% (T=t)/area-% (T=0)]×100.
The chemical stability assessment results after 14 day incubation (in the form of normalized purity values) are summarized in Table 4.

[3] = biological target: human glucagon-like peptide 1 receptor (GLP-1R) (human) (UniProt P43220)
human GLP-2 receptor [4] = biological target: T3, human GLP-2 receptor (Homo sapiens, UniProt O95838, D470N); test: GLP-2 receptor potency assay (cAMP AlphaScreen, HEK293 cells stably expressing GLP-2R); assay type: cell-based; settings: cAMP response, HEK293 cells expressing human GLP-2R
T3 sequence (O95838 1-553 D470N): T2 sequence (O95838 1-553 D470N)
Procedure, shortened: as §1

[5] = Solubility assessment by turbidity absorbance at 325 nm; assay type: physicochemical; settings: 1 mg/ml peptide
Method: A stock solution of the test peptide (2 mg/ml; determined from the weighed amount of peptide) in demineralized water adjusted to pH 2.5 with HCl was prepared, and aliquots were diluted 1:1 in 100 mM acetate buffer (pH 4.0 and pH 5.0), 100 mM histidine buffer (pH 6.0 and pH 7.0) and 100 mM phosphate buffer (pH 6.0, pH 7.0 and pH7.5), respectively, and loaded in a standard flat-bottom, non-sterile 96-well UV Microplate. The absorbance of samples (single samples, n=1) at 280 and 325 nm was measured in an absorbance-based plate reader, which was preheated to ambient temperature (typically 25° C.).

[6] = test system: Normal chow-fed C57BL/6J male mice; test: Effect on fasting glucose and intestinal weight in normal mice; assay type: in vivo
Method: Normal chow-fed C57BL/6J male mice were used. The mice were kept in standard housing conditions, light-, temperature-, and humidity-controlled room (12:12 h light-dark cycle, with lights on at 06.00-18.00 h; 20-22° C.; 50-80% relative humidity). Each dosing group consisted of 6 animals. Mice were dosed once daily with 250 nmol/kg with the test compounds or vehicle for 4 days via subcutaneous administration.
On day 0 mice were fasted and blood glucose levels measured after a single s.c. injection with peptides. Animals were sacrificed 24 hours after final dosing on day 3, and small intestinal wet weights were measured.

H-HGEGTFTSELATILDEQAARDFIAWLIAHKITD-OH [Compound 38]
EC50 (human GLP-1 receptor): 8 pM
EC50 (human GLP-2 receptor [1]): 43 pM
pH 7 normalised stability [2]: C (<80% normalized stability)

Liraglutide (NN2211; Victoza) (peptide)
EC50 GLP-1 (nM); cAMP AlphaScreen [3]: 0.029 nM

CC[C@H](C)[C@H](NC(=O)[C@H](Cc1ccccc1)NC(=O)[C@H](CC(=O)O)NC(=O)[C@H](CCCNC(=N)N)NC(=O)[C@H](C)NC(=O)[C@H](C)NC(=O)[C@H](CCC(N)=O)NC(=O)[C@H](CCC(=O)O)NC(=O)[C@H](CC(=O)O)NC(=O)[C@H](CC(C)C)NC(=O)[C@@H](NC(=O)[C@@H](NC(=O)[C@H](C)NC(=O)[C@H](CC(C)C)NC(=O)[C@H](CCC(=O)O)NC(=O)[C@H](CO)NC(=O)[C@@H](NC(=O)[C@H](Cc1ccccc1)NC(=O)[C@@H](NC(=O)CNC(=O)[C@H](CCC(=O)O)NC(=O)C(C)(C)NC(=O)[C@@H](N)Cc1c[nH]cn1)[C@@H](C)O)[C@@H](C)O)[C@@H](C)O)[C@@H](C)CC)C(=O)N[C@@H](C)C(=O)N[C@@H](Cc1c[nH]c2ccccc12)C(=O)N[C@@H](CC(C)C)C(=O)N[C@H](C(=O)N[C@@H](CCC(=O)O)C(=O)N[C@@H](Cc1c[nH]cn1)C(=O)N[C@@H](CCCCN)C(=O)N[C@H](C(=O)N[C@H](C(=O)N[C@@H](CC(=O)O)C(=O)O)[C@@H](C)O)[C@@H](C)CC)[C@@H](C)CC [Compound 5] (H-H[Aib]EGTFTSELATILDEQAARDFIAWLIEHKITD-OH)
EC50 (human GLP-1 receptor; cAMP response, HEK293 cells expressing human GLP-1R, read-out: EC50 GLP-1): 9.8 pM
EC50 (human GLP-2 receptor [4]): 67 pM
solubility ([5]; 100 mM acetate buffer pH 4.0, ambient temperature, read-out: Solubility, Acetate buffer pH 4): ≥ 1000 µg/mL
solubility ([5]; 100 mM acetate buffer pH 5.0, ambient temperature, read-out: Solubility, Acetate buffer pH 5): < 1000 µg/mL
solubility ([5]; 100 mM histidine buffer pH 6.0, ambient temperature, read-out: Solubility, Histidine buffer pH 6): ≥ 1000 µg/mL
solubility ([5]; 100 mM histidine buffer pH 7.0, ambient temperature, read-out: Solubility, Histidine buffer pH 7): ≥ 1000 µg/mL
solubility ([5]; 100 mM phosphate buffer pH 6.0, ambient temperature, read-out: Solubility, Phosphate buffer pH 6): ≥ 1000 µg/mL
solubility ([5]; 100 mM phosphate buffer pH 7.0, ambient temperature, read-out: Solubility, Phosphate buffer pH 7): ≥ 1000 µg/mL
solubility ([5]; 100 mM phosphate buffer pH 7.5, ambient temperature, read-out: Solubility, Phosphate buffer pH 7.5): ≥ 1000 µg/mL
Small intestinal wet weight ([6]; 250 nmol/kg s.c. once daily for 4 days, sacrificed 24 hours after final dosing): 0.90 g
Fasting blood glucose ([6]; day 0, fasted mice, after a single s.c. injection, 250 nmol/kg): 5.43 mM

CC[C@H](C)[C@H](NC(=O)[C@H](CC(C)C)NC(=O)[C@H](Cc1c[nH]c2ccccc12)NC(=O)[C@H](C)NC(=O)[C@@H](NC(=O)[C@H](Cc1ccccc1)NC(=O)[C@H](CCC(=O)O)NC(=O)[C@H](CCCNC(=N)N)NC(=O)[C@H](CO)NC(=O)[C@H](C)NC(=O)[C@H](CCC(N)=O)NC(=O)[C@H](CCC(=O)O)NC(=O)[C@H](CCC(=O)O)NC(=O)[C@H](CC(C)C)NC(=O)[C@@H](NC(=O)[C@@H](NC(=O)[C@H](CO)NC(=O)[C@H](CC(C)C)NC(=O)[C@H](CCC(=O)O)NC(=O)[C@H](CO)NC(=O)[C@H](CO)NC(=O)[C@H](Cc1ccccc1)NC(=O)[C@@H](NC(=O)CNC(=O)[C@H](CCC(=O)O)NC(=O)C(C)(C)NC(=O)[C@@H](N)Cc1c[nH]cn1)[C@@H](C)O)[C@@H](C)O)[C@@H](C)CC)[C@@H](C)CC)C(=O)N[C@@H](C)C(=O)N[C@@H](Cc1c[nH]cn1)C(=O)N[C@@H](CCCCN)C(=O)N[C@H](C(=O)N[C@H](C(=O)N[C@@H](CCC(=O)O)C(=O)O)[C@@H](C)O)[C@@H](C)CC [Compound 39] (H-H[Aib]EGTFSSELSTILEEQASREFIAWLIAHKITE-OH)
EC50 (human GLP-1 receptor): 30 pM
EC50 (human GLP-2 receptor [1]): 960 pM
